From ChEMBL document CHEMBL1201862, “PubChem BioAssay data set” (2004)
Calls of active or inactive are those of the source.

Legend:
Assay type in all cases: functional
[1] = target: T1, Replicative DNA helicase DnaB (Mycobacterium tuberculosis, UniProt P9WMR3); assay: DnaB intein splicing inhibitors, dose response, biochemical, cell-free fluorescence (AID 449749)
T1 sequence (P9WMR3 whole entry): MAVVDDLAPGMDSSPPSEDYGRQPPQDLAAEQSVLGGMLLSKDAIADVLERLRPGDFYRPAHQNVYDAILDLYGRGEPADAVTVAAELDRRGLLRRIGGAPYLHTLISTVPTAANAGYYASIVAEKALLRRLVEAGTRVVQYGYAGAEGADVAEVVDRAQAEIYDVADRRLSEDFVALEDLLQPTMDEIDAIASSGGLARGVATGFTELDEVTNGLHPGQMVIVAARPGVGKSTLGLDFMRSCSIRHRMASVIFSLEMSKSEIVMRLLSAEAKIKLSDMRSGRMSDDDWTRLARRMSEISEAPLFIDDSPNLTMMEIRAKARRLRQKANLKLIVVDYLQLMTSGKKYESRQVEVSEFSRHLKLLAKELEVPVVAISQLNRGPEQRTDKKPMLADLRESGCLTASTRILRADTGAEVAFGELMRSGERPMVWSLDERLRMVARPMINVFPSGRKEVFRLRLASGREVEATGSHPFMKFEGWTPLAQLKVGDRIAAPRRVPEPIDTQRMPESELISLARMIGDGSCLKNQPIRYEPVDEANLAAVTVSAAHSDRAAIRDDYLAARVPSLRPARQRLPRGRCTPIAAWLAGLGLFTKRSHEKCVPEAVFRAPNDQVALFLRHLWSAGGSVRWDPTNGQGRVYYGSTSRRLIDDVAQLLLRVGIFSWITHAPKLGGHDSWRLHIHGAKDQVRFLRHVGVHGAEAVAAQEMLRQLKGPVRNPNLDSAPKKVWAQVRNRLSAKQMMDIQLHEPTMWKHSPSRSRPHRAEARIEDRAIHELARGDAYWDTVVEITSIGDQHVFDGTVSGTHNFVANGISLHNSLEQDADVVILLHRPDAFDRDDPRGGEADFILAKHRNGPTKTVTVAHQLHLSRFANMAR

Protein RecA = target: T2, Protein RecA (Mycobacterium tuberculosis, UniProt P9WHJ3); assay: Fluorescence Cell-Free Homogeneous Dose Retest to Identify Inhibitors of RecA-Intein Splicing Activity. [Related pubchem assays (depositor defined):AID2097, AID2223, AID489010, AID492950]
T2 sequence (P9WHJ3 whole entry): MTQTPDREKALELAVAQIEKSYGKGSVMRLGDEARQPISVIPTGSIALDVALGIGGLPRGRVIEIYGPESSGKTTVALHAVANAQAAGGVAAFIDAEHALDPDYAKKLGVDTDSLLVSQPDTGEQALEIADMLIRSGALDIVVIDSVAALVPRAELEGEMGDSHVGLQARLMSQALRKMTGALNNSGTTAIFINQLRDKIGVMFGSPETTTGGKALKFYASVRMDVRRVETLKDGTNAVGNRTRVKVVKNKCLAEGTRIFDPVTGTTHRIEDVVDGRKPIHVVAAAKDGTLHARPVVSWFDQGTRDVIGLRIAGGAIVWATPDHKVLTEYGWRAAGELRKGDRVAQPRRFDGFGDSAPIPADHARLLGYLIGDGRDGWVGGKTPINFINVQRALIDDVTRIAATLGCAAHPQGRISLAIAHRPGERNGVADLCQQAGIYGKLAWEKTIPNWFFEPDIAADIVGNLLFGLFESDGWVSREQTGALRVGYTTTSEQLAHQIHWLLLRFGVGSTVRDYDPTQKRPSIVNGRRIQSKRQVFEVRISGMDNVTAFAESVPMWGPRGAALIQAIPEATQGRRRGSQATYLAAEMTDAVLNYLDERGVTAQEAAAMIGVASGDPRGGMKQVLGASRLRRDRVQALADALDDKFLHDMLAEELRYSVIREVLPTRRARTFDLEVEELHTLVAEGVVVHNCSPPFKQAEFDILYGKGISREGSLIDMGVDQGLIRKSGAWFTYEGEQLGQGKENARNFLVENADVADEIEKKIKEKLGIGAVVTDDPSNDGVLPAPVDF

[2] = target: T3, Apoptotic protease-activating factor 1 (Homo sapiens, UniProt O14727)
T3 sequence (O14727 whole entry): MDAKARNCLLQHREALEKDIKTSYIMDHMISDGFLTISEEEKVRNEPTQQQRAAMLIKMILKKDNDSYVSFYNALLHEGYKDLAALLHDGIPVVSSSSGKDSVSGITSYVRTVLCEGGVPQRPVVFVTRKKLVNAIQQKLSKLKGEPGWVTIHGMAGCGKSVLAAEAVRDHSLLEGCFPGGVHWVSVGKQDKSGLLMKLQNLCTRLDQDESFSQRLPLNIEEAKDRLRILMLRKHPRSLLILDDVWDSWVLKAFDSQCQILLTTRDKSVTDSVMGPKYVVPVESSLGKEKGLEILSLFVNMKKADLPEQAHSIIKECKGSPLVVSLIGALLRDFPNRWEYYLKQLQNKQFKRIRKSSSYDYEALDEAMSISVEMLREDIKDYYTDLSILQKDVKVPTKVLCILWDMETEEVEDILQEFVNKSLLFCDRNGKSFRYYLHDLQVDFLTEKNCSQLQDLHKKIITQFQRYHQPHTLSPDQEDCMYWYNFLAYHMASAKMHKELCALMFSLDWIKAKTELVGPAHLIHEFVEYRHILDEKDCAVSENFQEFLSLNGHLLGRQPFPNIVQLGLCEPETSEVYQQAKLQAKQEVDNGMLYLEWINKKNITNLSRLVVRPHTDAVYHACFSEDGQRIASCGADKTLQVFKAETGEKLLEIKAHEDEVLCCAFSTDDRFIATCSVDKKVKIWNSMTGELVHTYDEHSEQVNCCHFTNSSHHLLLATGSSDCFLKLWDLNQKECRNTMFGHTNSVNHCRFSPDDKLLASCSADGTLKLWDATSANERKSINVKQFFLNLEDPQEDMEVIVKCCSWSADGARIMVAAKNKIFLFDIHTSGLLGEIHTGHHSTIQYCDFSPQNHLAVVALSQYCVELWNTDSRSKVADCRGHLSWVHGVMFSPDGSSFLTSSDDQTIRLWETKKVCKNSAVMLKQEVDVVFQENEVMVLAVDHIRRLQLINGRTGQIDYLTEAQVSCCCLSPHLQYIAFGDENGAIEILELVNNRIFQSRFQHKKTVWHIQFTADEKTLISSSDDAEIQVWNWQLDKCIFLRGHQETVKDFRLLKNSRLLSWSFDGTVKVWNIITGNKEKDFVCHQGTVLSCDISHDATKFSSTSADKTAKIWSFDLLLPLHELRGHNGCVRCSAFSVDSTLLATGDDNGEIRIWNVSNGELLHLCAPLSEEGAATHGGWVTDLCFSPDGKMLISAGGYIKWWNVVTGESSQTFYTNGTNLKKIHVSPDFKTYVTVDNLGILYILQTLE

[3] = target: Induced myeloid leukemia cell differentiation protein Mcl-1 (Homo sapiens, UniProt Q07820)
Chain of Induced myeloid leukemia cell differentiation protein Mcl-1 (Q07820 whole entry): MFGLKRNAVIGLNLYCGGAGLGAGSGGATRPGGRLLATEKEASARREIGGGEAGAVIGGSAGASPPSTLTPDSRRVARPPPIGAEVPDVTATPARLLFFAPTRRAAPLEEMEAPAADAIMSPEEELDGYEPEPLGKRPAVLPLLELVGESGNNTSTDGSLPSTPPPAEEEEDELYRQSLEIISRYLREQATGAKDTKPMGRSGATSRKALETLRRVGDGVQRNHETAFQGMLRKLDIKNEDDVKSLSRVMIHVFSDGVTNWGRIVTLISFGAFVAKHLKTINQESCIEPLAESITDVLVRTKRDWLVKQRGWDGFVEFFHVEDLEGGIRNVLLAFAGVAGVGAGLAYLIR

SMILES: COC(=O)c1ccc(-c2ccc(C(c3c(C)[nH][nH]c3=O)c3c(C)[nH][nH]c3=O)o2)cc1
- AC50 [1]: 0.595 µM (inconclusive)
- EC50 (Protein RecA): 0.348 µM (active)
- IC50 [2]: 23.9 µM (active)

SMILES: Oc1ccc(/C=N/NC(=S)Nc2cccnc2)c(O)c1O
- IC50 [3]: 19.5 µM (active)
